The source made the active and inactive calls. No cut-off for these calls is given here.
How the values were obtained:
Protein smoothened [1] = molecular target: Protein smoothened (Mus musculus, UniProt P56726); assay: Inhibition of SMO in mouse NIH/3T3 cells assessed as inhibition of SAG-induced hedgehog-mediated luminescence signaling by GRE-luciferase reporter gene assay; type: cell-based
Protein smoothened [2] = molecular target: Protein smoothened (Homo sapiens, UniProt Q99835); assay: Inhibition of human Smo expressed in human U2OS cells assessed as reduction in BODIPY-cyclopamine fluorescence signaling by competitive displacement assay; type: cell-based
Sequence of Protein smoothened (Homo sapiens, UniProt Q99835) (Q99835 whole entry, canonical isoform): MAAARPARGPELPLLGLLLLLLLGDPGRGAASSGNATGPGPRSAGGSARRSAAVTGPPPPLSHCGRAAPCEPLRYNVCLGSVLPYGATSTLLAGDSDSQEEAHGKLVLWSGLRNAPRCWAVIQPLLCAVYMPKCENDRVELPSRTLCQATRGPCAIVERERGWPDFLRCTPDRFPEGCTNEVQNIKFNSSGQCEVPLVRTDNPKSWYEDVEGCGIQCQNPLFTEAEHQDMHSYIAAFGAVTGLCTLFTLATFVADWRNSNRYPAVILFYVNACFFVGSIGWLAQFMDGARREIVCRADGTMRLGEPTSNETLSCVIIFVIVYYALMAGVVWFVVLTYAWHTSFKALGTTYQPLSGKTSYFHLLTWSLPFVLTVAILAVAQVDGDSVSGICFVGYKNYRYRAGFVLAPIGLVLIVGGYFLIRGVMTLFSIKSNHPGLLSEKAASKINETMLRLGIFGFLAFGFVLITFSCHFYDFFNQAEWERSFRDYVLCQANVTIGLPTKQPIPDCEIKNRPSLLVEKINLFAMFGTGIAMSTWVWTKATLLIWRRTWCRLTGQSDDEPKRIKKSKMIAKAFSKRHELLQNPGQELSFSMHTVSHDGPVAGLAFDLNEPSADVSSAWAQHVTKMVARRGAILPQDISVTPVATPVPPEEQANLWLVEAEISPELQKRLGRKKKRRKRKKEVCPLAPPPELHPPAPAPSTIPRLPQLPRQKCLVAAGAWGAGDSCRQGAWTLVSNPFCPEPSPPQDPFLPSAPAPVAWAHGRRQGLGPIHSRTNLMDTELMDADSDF

[3] = molecular target: T1, Phosphatidylinositol 4,5-bisphosphate 3-kinase catalytic subunit alpha isoform (Homo sapiens, UniProt P42336); assay: Inhibition of PI3Kalpha (unknown origin) assessed as reduction in luminescence signaling at 1 uM by kinase-Glo plus luminescent kinase assay
T1 sequence (P42336 whole entry, canonical isoform): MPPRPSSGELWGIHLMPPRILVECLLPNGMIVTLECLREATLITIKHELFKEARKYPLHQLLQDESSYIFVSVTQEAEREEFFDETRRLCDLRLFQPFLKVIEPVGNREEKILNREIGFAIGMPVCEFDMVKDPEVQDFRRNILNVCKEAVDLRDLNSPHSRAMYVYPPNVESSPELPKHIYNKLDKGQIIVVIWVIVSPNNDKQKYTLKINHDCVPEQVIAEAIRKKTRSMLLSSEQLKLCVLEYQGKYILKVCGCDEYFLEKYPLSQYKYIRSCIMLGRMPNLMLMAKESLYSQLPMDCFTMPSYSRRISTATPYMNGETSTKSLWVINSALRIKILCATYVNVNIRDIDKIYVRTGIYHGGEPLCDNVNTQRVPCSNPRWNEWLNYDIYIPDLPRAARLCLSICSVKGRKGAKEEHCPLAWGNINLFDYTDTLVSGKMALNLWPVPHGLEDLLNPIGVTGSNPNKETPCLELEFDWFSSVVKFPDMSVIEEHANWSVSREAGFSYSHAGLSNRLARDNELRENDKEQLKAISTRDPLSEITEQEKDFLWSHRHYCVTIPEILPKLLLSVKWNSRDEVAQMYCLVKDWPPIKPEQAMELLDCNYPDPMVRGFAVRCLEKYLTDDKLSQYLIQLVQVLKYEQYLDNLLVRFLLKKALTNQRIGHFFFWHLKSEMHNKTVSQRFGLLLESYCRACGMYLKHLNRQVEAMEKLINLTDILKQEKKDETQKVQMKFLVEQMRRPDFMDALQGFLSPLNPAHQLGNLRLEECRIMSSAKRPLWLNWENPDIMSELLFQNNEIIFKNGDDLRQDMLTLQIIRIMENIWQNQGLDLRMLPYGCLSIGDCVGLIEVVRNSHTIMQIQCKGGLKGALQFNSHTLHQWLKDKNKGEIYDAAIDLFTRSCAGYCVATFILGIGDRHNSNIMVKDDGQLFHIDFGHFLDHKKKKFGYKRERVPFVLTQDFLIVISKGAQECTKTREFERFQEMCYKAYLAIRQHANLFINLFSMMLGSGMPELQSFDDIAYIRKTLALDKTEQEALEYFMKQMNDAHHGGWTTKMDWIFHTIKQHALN

[4] = molecular target: T2, Phosphatidylinositol 4,5-bisphosphate 3-kinase catalytic subunit delta isoform (Homo sapiens) (UniProt O00329); assay: Inhibition of N-terminal poly-His tagged human p110-delta expressed in Sf9 cells incubated for 20 mins by alpha screen assay
T2 sequence (whole entry): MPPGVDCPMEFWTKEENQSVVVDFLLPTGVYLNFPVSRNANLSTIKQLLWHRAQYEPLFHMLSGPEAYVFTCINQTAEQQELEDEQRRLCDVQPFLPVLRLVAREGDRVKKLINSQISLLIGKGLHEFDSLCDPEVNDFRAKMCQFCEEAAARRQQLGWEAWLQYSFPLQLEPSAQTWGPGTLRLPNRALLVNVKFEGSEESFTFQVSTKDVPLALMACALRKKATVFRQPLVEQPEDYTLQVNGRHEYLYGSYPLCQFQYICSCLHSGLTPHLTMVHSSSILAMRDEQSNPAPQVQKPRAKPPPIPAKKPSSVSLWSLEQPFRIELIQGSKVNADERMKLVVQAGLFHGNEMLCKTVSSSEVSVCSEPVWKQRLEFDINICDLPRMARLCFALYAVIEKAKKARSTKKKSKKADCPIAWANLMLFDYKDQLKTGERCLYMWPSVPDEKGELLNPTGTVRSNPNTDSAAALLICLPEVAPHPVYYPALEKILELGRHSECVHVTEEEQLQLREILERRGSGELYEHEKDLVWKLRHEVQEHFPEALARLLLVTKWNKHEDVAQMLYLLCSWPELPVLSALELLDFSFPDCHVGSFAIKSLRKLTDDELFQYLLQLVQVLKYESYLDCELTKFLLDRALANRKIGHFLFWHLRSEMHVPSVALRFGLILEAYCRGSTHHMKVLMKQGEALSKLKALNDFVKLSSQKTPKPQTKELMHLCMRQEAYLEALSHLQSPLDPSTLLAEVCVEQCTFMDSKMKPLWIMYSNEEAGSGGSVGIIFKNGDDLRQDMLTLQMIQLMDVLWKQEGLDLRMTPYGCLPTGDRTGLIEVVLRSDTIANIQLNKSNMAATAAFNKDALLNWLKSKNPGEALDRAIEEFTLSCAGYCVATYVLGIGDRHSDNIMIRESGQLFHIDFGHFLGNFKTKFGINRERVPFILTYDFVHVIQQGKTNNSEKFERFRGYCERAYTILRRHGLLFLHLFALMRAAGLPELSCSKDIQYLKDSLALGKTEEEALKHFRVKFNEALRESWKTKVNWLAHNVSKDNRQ

[5] = Solubility of the compound; type: physicochemical
[6] = molecular target: T1, Phosphatidylinositol 4,5-bisphosphate 3-kinase catalytic subunit alpha isoform; assay: Inhibition of PI3Kalpha (unknown origin) assessed as reduction in luminescence signaling by kinase-Glo plus luminescent kinase assay

Sequence of Protein smoothened (Mus musculus, UniProt P56726) (P56726 whole entry): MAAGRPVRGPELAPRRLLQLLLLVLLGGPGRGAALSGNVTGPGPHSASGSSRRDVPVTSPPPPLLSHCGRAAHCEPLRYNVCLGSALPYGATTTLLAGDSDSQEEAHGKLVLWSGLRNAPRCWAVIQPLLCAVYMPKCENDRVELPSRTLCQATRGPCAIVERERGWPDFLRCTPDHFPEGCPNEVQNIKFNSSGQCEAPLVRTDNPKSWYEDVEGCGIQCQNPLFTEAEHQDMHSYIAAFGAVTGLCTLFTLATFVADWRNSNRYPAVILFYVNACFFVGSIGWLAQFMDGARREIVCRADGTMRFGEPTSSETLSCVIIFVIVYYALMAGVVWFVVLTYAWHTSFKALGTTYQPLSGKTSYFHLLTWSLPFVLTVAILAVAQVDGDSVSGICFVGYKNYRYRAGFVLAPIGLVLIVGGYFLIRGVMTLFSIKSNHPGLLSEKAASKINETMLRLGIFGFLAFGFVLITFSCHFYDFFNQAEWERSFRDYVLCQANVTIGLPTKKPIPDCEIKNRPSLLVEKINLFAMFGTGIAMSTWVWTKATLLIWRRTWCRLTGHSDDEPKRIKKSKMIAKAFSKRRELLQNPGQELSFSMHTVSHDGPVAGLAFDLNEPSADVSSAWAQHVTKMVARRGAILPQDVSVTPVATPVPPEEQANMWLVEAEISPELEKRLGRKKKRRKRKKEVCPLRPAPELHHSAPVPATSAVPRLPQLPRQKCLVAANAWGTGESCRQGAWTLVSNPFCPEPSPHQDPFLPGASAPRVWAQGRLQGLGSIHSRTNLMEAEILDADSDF

IC50 (Protein smoothened [1]) [µM]	other results	SMILES
0.21	–	O=C(Nc1cc(-c2ccc3nc(NC4CC4)sc3c2)cnc1Cl)c1ccccc1
0.15	–	O=C(Nc1cc(-c2ccc3nc(NCC4CC4)sc3c2)cnc1Cl)c1ccccc1
> 10	–	CC(=O)Nc1nc2ccc(-c3cnc(Cl)c(NC(=O)c4ccc(Cl)cc4)c3)cc2s1
3.4	–	CC(=O)Nc1nc2ccc(-c3cnc(Cl)c(NC(=O)Cc4ccccc4)c3)cc2s1
4.1	–	CC(=O)Nc1nc2ccc(-c3cnc(Cl)c(NC(=O)c4ccccc4Cl)c3)cc2s1
0.064	IC50 (Protein smoothened [2]): 0.0056 µM; inhibition [3]: 9%	CC(=O)Nc1nc2ccc(-c3cnc(Cl)c(NC(=O)c4ccccc4)c3)cc2s1
0.12	inhibition [4]: Active; solubility [5]: Insoluble	CC(=O)Nc1nc2ccc(-c3cnc(Cl)c(NS(=O)(=O)c4ccc(F)cc4)c3)cc2s1
> 10	–	CC(=O)Nc1nc2ccc(-c3cnc(Cl)c(NC(=O)C4CC4)c3)cc2s1
5	–	CC(=O)Nc1nc2ccc(-c3cnc(Cl)c(NC(=O)c4cccc(F)c4)c3)cc2s1
0.15	–	O=C(Nc1cc(-c2ccc3nc(NC4CC4)sc3c2)cnc1Cl)c1cccc(Cl)c1
0.19	–	O=C(Nc1cc(-c2ccc3nc(NCC4CC4)sc3c2)cnc1Cl)c1cccc(Cl)c1
0.17	inhibition [3]: 48%	CC(=O)Nc1nc2ccc(-c3cnc(Cl)c(NC(=O)c4ccc(F)cc4)c3)cc2s1
0.041	IC50 (Protein smoothened [2]): 0.01 µM; inhibition [3]: 93%; IC50 [6]: 0.98 µM	CC(=O)Nc1nc2ccc(-c3cnc(Cl)c(NC(=O)c4cccc(Cl)c4)c3)cc2s1
0.1	inhibition [3]: 85%; IC50 [6]: 0.49 µM	CC(=O)Nc1nc2ccc(-c3cnc(Cl)c(NC(C#N)c4ccccc4)c3)cc2s1 (configuration not stated)
0.81	–	CC(=O)Nc1nc2ccc(-c3cnc(Cl)c(NC(=O)c4ccc(C)cc4)c3)cc2s1
0.94	–	CC(=O)Nc1nc2ccc(-c3cnc(Cl)c(NCc4ccccc4)c3)cc2s1
> 10	–	CC(=O)Nc1nc2ccc(-c3cnc(Cl)c(NC(=O)c4ccccc4F)c3)cc2s1

From ChEMBL document CHEMBL3603806, “Discovery of a 6-(pyridin-3-yl)benzo[d]thiazole template for optimization of hedgehog and PI3K/AKT/mTOR dual inhibitors” (Bioorg Med Chem Lett, 2015)
